Laboratory results published in patent publication US20220202939A1, “PREPARATION FOR IMPROVING ACTIVITY AND/OR THERMAL STABILITY OF SUPEROXIDE DISMUTASE, AND APPLICATION THEREOF” (CHINA AGRICULTURAL UNIVERSITY, priority 2020, published 2022).

The molecules below were run on superoxide dismutase (SOD) (assay: Influence of small-molecule substances on SOD enzyme activity and thermal stability at 80° C.). Settings: experimental group 1: 100 μL SOD solution (1×10^−4 mol/L) + 100 μL substance solution (1×10^−3 mol/L); water bath 80° C., 4 hours, enzyme activity every 20 minutes; vs SOD blank control; FIG. 1.
Format: biochemical
Experimental: SOD solution: Mr(SOD)=37.8 kDa, 37.8 mg of SOD was weighed and dissolved in 10 mL of phosphate buffer to obtain a stock solution of CSOD=1×10^−4 mol/L.
Experimental group 1: 100 μL of the SOD solution was taken out and added to each of […] 10 mL centrifuge tubes, and then 100 μL of the solution of each of the vitamin C, the vitamin p, the catechin, the quercetin, the myricetin, the kaempherol, the ellagic acid, and the ferulic acid was added to each of the […] centrifuge tubes. Another 100 μL of the SOD solution was taken out as blank control. The centrifuge tubes and the blank control were placed in a water bath at 80° C., incubated for 4 hours, and detected for enzyme activity every 20 minutes. […]
For `O=c1c(O)c(-c2cc(O)c(O)c(O)c2)oc2cc(O)cc(O)c12` [myricetin], the “activity of the SOD” value was “improve the activity of the SOD” and the “thermal stability of the SOD” value was “significantly improve the thermal stability of the SOD”.
For `O=c1c(O)c(-c2ccc(O)cc2)oc2cc(O)cc(O)c12` [kaempherol], the “activity of the SOD” value was “improve the activity of the SOD” and the “thermal stability of the SOD” value was “significantly improve the thermal stability of the SOD”.
In the case of `O=C1O[C@H]([C@@H](O)CO)C(O)=C1O` [vitamin C], the “activity of the SOD” value is reported as “improve the activity of the SOD” and the “thermal stability of the SOD” value is reported as “significantly improve the thermal stability of the SOD”.
With `COc1cc(/C=C/C(=O)O)ccc1O` [ferulic acid] the “activity of the SOD” value was “improve the activity of the SOD” and the “thermal stability of the SOD” value was “significantly improve the thermal stability of the SOD”.
`O=c1c(O)c(-c2ccc(O)c(O)c2)oc2cc(O)cc(O)c12` [quercetin] was tested, and the “activity of the SOD” value was “improve the activity of the SOD” and the “thermal stability of the SOD” value was “significantly improve the thermal stability of the SOD”.
In the case of `Cc1ncc(C[n+]2csc(CCO)c2C)c(N)n1` [Vb1, vitamin B1, reference compound], the “activity of the SOD” value is reported as “fails to improve the activity and thermal stability of SOD enzymes” and the “thermal stability of the SOD” value is reported as “fails to improve the activity and thermal stability of SOD enzymes”.
vitamin P was tested, and the “activity of the SOD” value was “improve the activity of the SOD” and the “thermal stability of the SOD” value was “significantly improve the thermal stability of the SOD”.
For catechin, the “activity of the SOD” value was “improve the activity of the SOD” and the “thermal stability of the SOD” value was “significantly improve the thermal stability of the SOD”.
`O=c1oc2c(O)c(O)cc3c(=O)oc4c(O)c(O)cc1c4c23` [ellagic acid] was tested, and the “activity of the SOD” value was “improve the activity of the SOD” and the “thermal stability of the SOD” value was “significantly improve the thermal stability of the SOD”.
